Laboratory results taken from patent US20100048692A1, “Naphthofuranone Derivatives as Specific Inhibitors of Thymidylate Synthases” (priority 2006, published 2010).
Values after ≈ are worked out from the molar mass of the structure shown.

Experiments:
hDHFR (human DHFR) = target: T1, hDHFR (human DHFR) (Homo sapiens, UniProt P00374); experiment: Enzymatic inhibition assay (Ki), human DHFR; format: biochemical
T1 construct: made in house; host or cells: Escherichia coli chi2913
T1 sequence (P00374 1-187): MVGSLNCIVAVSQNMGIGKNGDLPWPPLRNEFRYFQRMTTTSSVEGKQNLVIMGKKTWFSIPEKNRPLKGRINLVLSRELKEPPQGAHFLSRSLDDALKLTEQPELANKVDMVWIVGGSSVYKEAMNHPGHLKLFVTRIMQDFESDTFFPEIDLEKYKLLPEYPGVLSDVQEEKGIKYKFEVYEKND
Procedure: The purified enzyme has been stored at −80° C. […] The enzymatic assays for the measurements of the Km consist in measuring the initial rate of the enzymatic reaction in presence of variable and increasing substrate (FAH2).
(§1) Enzymatic inhibition assay: The compounds hereby analyzed were previously dissolved in DMSO. The inhibitor concentrated solution was obtained by dissolving 2 mg of compound in 1 mL of DMSO. Next, solutions thus obtained were successively preserved and the […], and the stability of their working conditions was constantly controlled. The spectrophotometrical determinations of enzymatic reaction kinetics were carried out using a Parkin-Elmer λ16 spectrophotometer, provided with a multicell system which was maintained at the constant temperature of 20 C. degrees, with a HAAAKE F3C thermostatted bath.
The measurement of Ki (inhibition constant) was obtained through enzymatic inhibition essays carried out under stationary conditions. […] The enzyme is added finally. The assay aiming at controlling TS enzymatic activity is repeated at regular intervals. […] In this case inhibition constants were obtained through a non-linear regression analysis, which utilized of the least squared method, of the enzymatic reaction initial speeds relating to the inhibitor concentration; equation was the following: […]

CnTS = CnTS (Cryptococcus neoformans, UniProt P0CS12); format: biochemical
CnTS, sequence (P0CS12 whole entry): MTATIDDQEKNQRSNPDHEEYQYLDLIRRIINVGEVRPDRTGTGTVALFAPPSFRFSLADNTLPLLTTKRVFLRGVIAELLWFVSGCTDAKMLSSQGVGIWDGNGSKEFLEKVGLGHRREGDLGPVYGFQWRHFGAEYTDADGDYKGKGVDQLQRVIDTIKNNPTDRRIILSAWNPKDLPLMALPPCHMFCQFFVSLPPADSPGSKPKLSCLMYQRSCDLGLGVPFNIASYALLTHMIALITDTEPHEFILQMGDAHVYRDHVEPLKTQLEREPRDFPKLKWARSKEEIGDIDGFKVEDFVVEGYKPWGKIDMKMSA
Procedure: as §1
The elaboration of the data was carried out using Kaleidagraph 3.0; this software was provided by Macintosh (Adelbeck, Software Reading, Pa., 1989, version 2.3). The measurement of Ki (inhibition constant) was obtained through enzymatic inhibition essays carried out under stationary conditions. […] The enzyme is added finally. The assay aiming at controlling TS enzymatic activity is repeated at regular intervals. […] In this case inhibition constants were obtained through a non-linear regression analysis, which utilized of the least squared method, of the enzymatic reaction initial speeds relating to the inhibitor concentration; equation was the following:
Vi=Vmax*(1−([I])/([I]+(Ki*(1+([s]/Km))))), where
Vi=enzymatic reaction initial velocity, Vmax=enzymatic reaction maximum velocity, I=inhibitor concentration, Ki=inhibition constant, S=substrate concentration, Km=Michaelis-Menten.
Using this equation it is possible to obtain Ki making use of a minimal amount of experimental data. The specificity index relating to each of the compounds (Bio. Med. Chem. ) refers to the relation between KihTS/Kiother enzyme.

[1] = system: Staphylococcus aureus ATCC29213; experiment: Sensitivity assay (MIC); format: cell-based
Procedure: (§2) The anti-bacterial properties of the compounds hereby described were evaluated towards: a) bacterial native strains comprehending gram-positive and gram-negative bacteria. The bacterial cultures were obtained by sowing bacteria in Mueller-Hinton (Difco) stirring at 37 C for 24 hours, and were then diluted, after reaching an appreciable level of exponential growth, using a growth plot in order to get a […] CFU/mL inoculum. Following, the obtained cultures were put in contact with growing concentrations of the present compound. Furthermore, it was measured the minimal concentration inhibiting the growth (MIC) of each of these compounds. In Table 2 several MIC obtained by different bacterial pathogenic strains have been reported that were treated using compounds of the present invention and were also compared with those obtained through ciprofluoxacin (cpx).

[2] = system: Staphylococcus aureus K28; experiment: Sensitivity assay (MIC); format: cell-based
Procedure: as §2

Listeria monocytogenes 3 = experiment: Sensitivity assay (MIC); format: cell-based
Procedure: as §2

Escherichia coli 292 = experiment: Sensitivity assay (MIC); format: cell-based
Procedure: as §2

Listeria monocytogenes 8 = experiment: Sensitivity assay (MIC); format: cell-based
Procedure: as §2

Listeria monocytogenes 7 = experiment: Sensitivity assay (MIC); format: cell-based
Procedure: as §2

[3] = system: Enterococcus faecalis ATCCC 29212; experiment: Sensitivity assay (MIC); format: cell-based
Procedure: as §2

Streptococcus 42 = experiment: Sensitivity assay (MIC); format: cell-based
Procedure: as §2

Citrobacter 224 = experiment: Sensitivity assay (MIC); format: cell-based
Procedure: as §2

[4] = system: Staphylococcus haemolyticus ATCC 2997; experiment: Sensitivity assay (MIC); format: cell-based
Procedure: as §2

[5] = system: Listeria monocytogenes ATCC 4428; experiment: Sensitivity assay (MIC); format: cell-based
Procedure: as §2

Listeria monocytogenes 4 = experiment: Sensitivity assay (MIC); format: cell-based
Procedure: as §2

Listeria monocytogenes 6 = experiment: Sensitivity assay (MIC); format: cell-based
Procedure: as §2

Escherichia coli 256 = experiment: Sensitivity assay (MIC); format: cell-based
Procedure: as §2

[6] = system: Staphylococcus aureus 343; experiment: Sensitivity assay (MIC); format: cell-based
Procedure: as §2

[7] = system: Staphylococcus saprophiticus ATCC15305; experiment: Sensitivity assay (MIC); format: cell-based
Procedure: as §2

Listeria monocytogenes 5 = experiment: Sensitivity assay (MIC); format: cell-based
Procedure: as §2

[8] = system: Staphylococcus aureus 341; experiment: Sensitivity assay (MIC); format: cell-based
Procedure: as §2

Q: How did the Ki (hDHFR (human DHFR)) turn out when `O=C1OC(c2ccc(O)c(Br)c2)(c2ccc(O)c(Br)c2)c2ccc3ccccc3c21` [Compound 4] was run?
A: 33 µM

Q: What about the “SSI hTS vs hDHFR” value (hDHFR (human DHFR)) of the same compound?
A: 0.2

Q: What about the Ki (CnTS) of the same compound?
A: 2.7 µM

Q: For `O=C1OC(c2ccc(O)cc2)(c2ccc(O)cc2)c2ccc3ccccc3c21` [Compound 6, 3,3-Bis-(4-hydroxyphenyl)-1H-naphtho[1,2-c]furan-3-one], which Ki (hDHFR (human DHFR)) is on record?
A: 13 µM

Q: How did the “SSI hTS vs hDHFR” value (hDHFR (human DHFR)) turn out when `O=C1OC(c2ccc(O)c(Cl)c2)(c2ccc(O)c(Cl)c2)c2ccc3ccccc3c21` [Compound 7, 3,3-Bis-(3-chlorine-4-hydroxyphenyl)1H-naphtho(1,2-c)furan-3-one] was run?
A: 1

Q: What about the Ki (CnTS) of the same compound?
A: 8.1 µM

Q: `Cc1cc(O)c(C(C)C)cc1C1(c2cc(C(C)C)c(O)cc2C)OC(=O)c2c1ccc1ccccc21` [Compound 2, 33,3-Bis-(4-hydroxyl-5-isopropyl-2-methylphenyl)-3H-naphtho(1,2-c)furan-1-one] was tested. Which Ki (hDHFR (human DHFR)) did it give?
A: 35 µM

Q: What about the “SSI hTS vs hDHFR” value (hDHFR (human DHFR)) of the same compound?
A: 88

Q: And the Ki (CnTS)?
A: 0.6 µM

Q: Which results are given for `O=C(O)c1cn(C2CC2)c2cc(N3CCNCC3)c(F)cc2c1=O` [cpx, ciprofluoxacin, reference compound]?
A: Minimum inhibitory concentration (MIC) [1]: 0.5 µg/mL (≈ 1.51 µM); Minimum inhibitory concentration (MIC) [2]: 0.5 µg/mL (≈ 1.51 µM); Minimum inhibitory concentration (MIC) (Listeria monocytogenes 3): 2.5 µg/mL (≈ 7.54 µM); Minimum inhibitory concentration (MIC) (Escherichia coli 292): >25 µg/mL; Minimum inhibitory concentration (MIC) (Listeria monocytogenes 8): 1 µg/mL (≈ 3.02 µM); Minimum inhibitory concentration (MIC) (Listeria monocytogenes 7): 1 µg/mL (≈ 3.02 µM); Minimum inhibitory concentration (MIC) [3]: 12.5 µg/mL (≈ 37.7 µM); Minimum inhibitory concentration (MIC) (Streptococcus 42): >5 µg/mL; Minimum inhibitory concentration (MIC) (Citrobacter 224): >25 µg/mL; Minimum inhibitory concentration (MIC) [4]: 2.5 µg/mL (≈ 7.54 µM); Minimum inhibitory concentration (MIC) [5]: 2.5 µg/mL (≈ 7.54 µM); Minimum inhibitory concentration (MIC) (Listeria monocytogenes 4): 1 µg/mL (≈ 3.02 µM); Minimum inhibitory concentration (MIC) (Listeria monocytogenes 6): 2.5 µg/mL (≈ 7.54 µM); Minimum inhibitory concentration (MIC) (Escherichia coli 256): >25 µg/mL; Minimum inhibitory concentration (MIC) [6]: 0.5 µg/mL (≈ 1.51 µM); Minimum inhibitory concentration (MIC) [7]: 1 µg/mL (≈ 3.02 µM); Minimum inhibitory concentration (MIC) (Listeria monocytogenes 5): 2.5 µg/mL (≈ 7.54 µM); Minimum inhibitory concentration (MIC) [8]: 1.2 µg/mL (≈ 3.62 µM)

Q: `O=C1OC(c2ccc(O)c(I)c2)(c2ccc(O)c(I)c2)c2ccc3ccccc3c21` [Compound 3] was tested. Which Ki (hDHFR (human DHFR)) did it give?
A: 3.9 µM

Q: What about the “SSI hTS vs hDHFR” value (hDHFR (human DHFR)) of the same compound?
A: 0.01

Q: What about the Ki (CnTS) of the same compound?
A: 4.5 µM

Q: What does the source list for `O=C1OC(c2ccc(O)c(F)c2)(c2ccc(O)c(F)c2)c2ccc3ccccc3c21` [Compound 8, 3,3-Bis-(3-fluorine-4-hydroxyphenyl)1H-naphtho(1,2-c)furan-3-one]?
A: Ki (hDHFR (human DHFR)): 109 µM; SSI hTS vs hDHFR (hDHFR (human DHFR)): 1; Ki (CnTS): 3.5 µM; Minimum inhibitory concentration (MIC) [1]: 25 µg/mL (≈ 61.8 µM); Minimum inhibitory concentration (MIC) [2]: 25 µg/mL (≈ 61.8 µM); Minimum inhibitory concentration (MIC) (Listeria monocytogenes 3): 25 µg/mL (≈ 61.8 µM); Minimum inhibitory concentration (MIC) (Escherichia coli 292): >50 µg/mL; Minimum inhibitory concentration (MIC) (Listeria monocytogenes 8): 25 µg/mL (≈ 61.8 µM); Minimum inhibitory concentration (MIC) (Listeria monocytogenes 7): 25 µg/mL (≈ 61.8 µM); Minimum inhibitory concentration (MIC) [3]: 25 µg/mL (≈ 61.8 µM); Minimum inhibitory concentration (MIC) (Streptococcus 42): 25 µg/mL (≈ 61.8 µM); Minimum inhibitory concentration (MIC) (Citrobacter 224): >50 µg/mL; Minimum inhibitory concentration (MIC) [4]: 25 µg/mL (≈ 61.8 µM); Minimum inhibitory concentration (MIC) [5]: 25 µg/mL (≈ 61.8 µM); Minimum inhibitory concentration (MIC) (Listeria monocytogenes 4): 25 µg/mL (≈ 61.8 µM); Minimum inhibitory concentration (MIC) (Listeria monocytogenes 6): 25 µg/mL (≈ 61.8 µM); Minimum inhibitory concentration (MIC) (Escherichia coli 256): >50 µg/mL; Minimum inhibitory concentration (MIC) [6]: 25 µg/mL (≈ 61.8 µM); Minimum inhibitory concentration (MIC) [7]: 25 µg/mL (≈ 61.8 µM); Minimum inhibitory concentration (MIC) (Listeria monocytogenes 5): 25 µg/mL (≈ 61.8 µM); Minimum inhibitory concentration (MIC) [8]: 25 µg/mL (≈ 61.8 µM)
